Laboratory results as given in ChEMBL document CHEMBL3885861, “Open TG-GATES”.

Organism: Rattus norvegicus
Test: Open TG-GATES - Regimen: Single
Type: toxicity, organism-based, Sprague-Dawley
Set-up: regimen Single, gender Male, age 6 weeks
Settings: in vivo, po, 60 mg/kg, route gavage, dose level Middle; for APTT / Bas / Eos / Fbg / Hb / Ht / Lym / MCH / MCHC / MCV / Mono / Neu / PT / Plat / RBC / Ret / WBC: tissue Blood; for KIDNEY_L / KIDNEY_R / KIDNEY_TOTAL: tissue Kidney; for LIVER: tissue Liver; for A/G / ALP / ALT / AST / BUN / CRE / Ca / Cl / DBIL / GLC / IP / K / LDH / Na / PL / RALB / TBIL / TC / TG / TP / gamma-GTP: tissue Plasma

What does the source list for `CCc1oc2ccccc2c1C(=O)c1cc(Br)c(O)c(Br)c1` [BENZBROMARONE]?
TERMINAL_BW (3 h): 215.1 g; APTT (3 h): 17.4 s; Bas (3 h): 0%; Eos (3 h): 1%; Fbg (3 h): 233.2 mg/dL; Hb (3 h): 13.8 g/dL; Ht (3 h): 41.1%; Lym (3 h): 83%; MCH (3 h): 21.9 pg; MCHC (3 h): 33.7%; MCV (3 h): 64.9 fL; Mono (3 h): 6.6%; Neu (3 h): 9.4%; PT (3 h): 11.8 s; Plat (3 h): 99.4 x10_4/uL; RBC (3 h): 633 x10_4/ul; Ret (3 h): 7.5%; WBC (3 h): 133 x10_2/uL; KIDNEY_L (3 h): 1 g; KIDNEY_R (3 h): 1 g; KIDNEY_TOTAL (3 h): 1.9 g; LIVER (3 h): 10.6 g; A/G (3 h): 2.1; ALP (3 h): 892.8 IU/L; ALT (3 h): 30.6 IU/L; AST (3 h): 62.4 IU/L; BUN (3 h): 12.8 mg/dL; CRE (3 h): 0.6 mg/dL; Ca (3 h): 11 mg/dL; Cl (3 h): 103.8 meq/L; DBIL (3 h): 0.064 mg/dL; GLC (3 h): 202.8 mg/dL; IP (3 h): 9.8 mg/dL; K (3 h): 4.8 meq/L; LDH (3 h): 87.4 IU/L; Na (3 h): 139.6 meq/L; PL (3 h): 147.6 mg/dL; RALB (3 h): 3.8 g/dL; TBIL (3 h): 0.3 mg/dL; TC (3 h): 82.6 mg/dL; TG (3 h): 72.8 mg/dL; TP (3 h): 5.7 g/dL; gamma-GTP (3 h): 1 IU/L; TERMINAL_BW (6 h): 212 g; APTT (6 h): 16.1 s; Bas (6 h): 0%; Eos (6 h): 1%; Fbg (6 h): 230.6 mg/dL; Hb (6 h): 13.5 g/dL; Ht (6 h): 40.2%; Lym (6 h): 75.6%; MCH (6 h): 21.7 pg; MCHC (6 h): 33.6%; MCV (6 h): 64.5 fL; Mono (6 h): 6.4%; Neu (6 h): 17.2%; PT (6 h): 12.2 s; Plat (6 h): 103.4 x10_4/uL; RBC (6 h): 624.2 x10_4/ul; Ret (6 h): 7.8%; WBC (6 h): 86 x10_2/uL; KIDNEY_L (6 h): 1 g; KIDNEY_R (6 h): 1 g; KIDNEY_TOTAL (6 h): 2 g; LIVER (6 h): 9.8 g; A/G (6 h): 2.2; ALP (6 h): 764.8 IU/L; ALT (6 h): 28.8 IU/L; AST (6 h): 58.8 IU/L; BUN (6 h): 9.2 mg/dL; CRE (6 h): 0.5 mg/dL; Ca (6 h): 10.3 mg/dL; Cl (6 h): 103.6 meq/L; DBIL (6 h): 0.016 mg/dL; GLC (6 h): 195 mg/dL; IP (6 h): 10.1 mg/dL; K (6 h): 4.8 meq/L; LDH (6 h): 88.8 IU/L; Na (6 h): 138.6 meq/L; PL (6 h): 131.4 mg/dL; RALB (6 h): 3.8 g/dL; TBIL (6 h): 0.4 mg/dL; TC (6 h): 74.2 mg/dL; TG (6 h): 79.6 mg/dL; TP (6 h): 5.6 g/dL; gamma-GTP (6 h): 1 IU/L; TERMINAL_BW (9 h): 210.8 g; APTT (9 h): 16.3 s; Bas (9 h): 0%; Eos (9 h): 1%; Fbg (9 h): 233 mg/dL; Hb (9 h): 13.6 g/dL; Ht (9 h): 40.8%; Lym (9 h): 77.6%; MCH (9 h): 21.9 pg; MCHC (9 h): 33.4%; MCV (9 h): 65.6 fL; Mono (9 h): 5.4%; Neu (9 h): 16.6%; PT (9 h): 12.2 s; Plat (9 h): 109.2 x10_4/uL; RBC (9 h): 622.6 x10_4/ul; Ret (9 h): 7.4%; WBC (9 h): 90.4 x10_2/uL; KIDNEY_L (9 h): 0.9 g; KIDNEY_R (9 h): 1 g; KIDNEY_TOTAL (9 h): 1.9 g; LIVER (9 h): 9.1 g; A/G (9 h): 2.1; ALP (9 h): 731.6 IU/L; ALT (9 h): 29 IU/L; AST (9 h): 59.8 IU/L; BUN (9 h): 10.4 mg/dL; CRE (9 h): 0.6 mg/dL; Ca (9 h): 10.1 mg/dL; Cl (9 h): 104.4 meq/L; DBIL (9 h): 0.004 mg/dL; GLC (9 h): 187.8 mg/dL; IP (9 h): 11.1 mg/dL; K (9 h): 4.9 meq/L; LDH (9 h): 85 IU/L; Na (9 h): 138 meq/L; PL (9 h): 112.4 mg/dL; RALB (9 h): 3.9 g/dL; TBIL (9 h): 0.3 mg/dL; TC (9 h): 67.4 mg/dL; TG (9 h): 37.6 mg/dL; TP (9 h): 5.7 g/dL; gamma-GTP (9 h): 1.2 IU/L; TERMINAL_BW (24 h): 222.2 g; APTT (24 h): 16.1 s; Bas (24 h): 0%; Eos (24 h): 1.2%; Fbg (24 h): 223.2 mg/dL; Hb (24 h): 13.8 g/dL; Ht (24 h): 41.1%; Lym (24 h): 77.2%; MCH (24 h): 22.4 pg; MCHC (24 h): 33.7%; MCV (24 h): 66.5 fL; Mono (24 h): 9%; Neu (24 h): 12.6%; PT (24 h): 12.3 s; Plat (24 h): 105.9 x10_4/uL; RBC (24 h): 617.8 x10_4/ul; Ret (24 h): 7.5%; WBC (24 h): 80 x10_2/uL; KIDNEY_L (24 h): 1 g; KIDNEY_R (24 h): 1 g; KIDNEY_TOTAL (24 h): 2.1 g; LIVER (24 h): 11.9 g; A/G (24 h): 2.2; ALP (24 h): 861.2 IU/L; ALT (24 h): 31.6 IU/L; AST (24 h): 63.4 IU/L; BUN (24 h): 18.6 mg/dL; CRE (24 h): 0.6 mg/dL; Ca (24 h): 10.3 mg/dL; Cl (24 h): 104.8 meq/L; DBIL (24 h): 0.016 mg/dL; GLC (24 h): 183.2 mg/dL; IP (24 h): 7.9 mg/dL; K (24 h): 5 meq/L; LDH (24 h): 111.2 IU/L; Na (24 h): 138.2 meq/L; PL (24 h): 130.6 mg/dL; RALB (24 h): 4.1 g/dL; TBIL (24 h): 0.4 mg/dL; TC (24 h): 68.2 mg/dL; TG (24 h): 111 mg/dL; TP (24 h): 5.9 g/dL; gamma-GTP (24 h): 1.4 IU/L
